Patent publication US9403763B2, “CD4-mimetic inhibitors of HIV-1 entry and methods of use thereof” (priority 2011, dated 2016)
Entries after “also recorded” stand apart in the source; their conditions may differ. Where a name gives a salt, the structure may show the parent alone. Read-outs that look alike come from different tables or passages of the source.

What was measured:
[1] = tested on: amphotropic murine leukemia virus (A-MLV); assay: Specificity control: infection by virus pseudotyped with A-MLV envelope glycoproteins; assay type: cell-based; conditions: for specificity: inhibition of A-MLV entry: either cell type
Description: (§1) The calorimetric cell (approximately 1.4 mL), containing gp120 from the YU2 strain dissolved in PBS (Roche Diagnostics GmbH, Mannheim, Germany), pH 7.4 with 2% DMSO, was titrated with the different inhibitors dissolved in the same buffer.
(§2) The recombinant viruses employed were pseudotyped with HIV-1 envelope glycoproteins derived from either an X4, laboratory-adapted HXBc2 isolate, or the R5, primary YU2 isolate. As a control for specificity, the viruses were pseudotyped with the envelope glycoproteins of the amphotropic murine leukemia virus (A-MLV), an unrelated retrovirus.
(§3) Compounds were dissolved in dimethyl sulfoxide (DMSO), and stored at 10 mM concentrations at −20° C. The compounds were diluted in Dulbecco Modified Eagle Medium (DMEM, Invitrogen) to create 1 mM solutions before use. Soluble CD4 (sCD4) was purchased from ImmunoDiagnostics (Woburn, Mass.). Human 293T embryonic kidney and canine Cf2Th thymocytes (ATCC) were grown at 37° C. and 5% CO2 in DMEM (Invitrogen) containing 10% fetal bovine serum (Sigma) and 100 μg/mL of penicillin-streptomycin (Meditech, Inc.). Cf2Th cells stably expressing human CD4 and either CCR5 or CXCR4 (Babcock et al., 2001, Mirzabekov et al., 1999) were grown in medium supplemented with 0.4 mg/mL of G418 (Invitrogen) and 0.20 mg/mL of hygromycin B (Roche Diagnostics). Using the Effectene transfection reagent (Qiagen), 293T human embryonic kidney cells were cotransfected with plasmids expressing the pCMVΔP1ΔenvpA HIV-1 Gag-Pol packaging construct, the wild-type or mutant HIV-1YU2 envelope glycoproteins or the envelope glycoproteins of the control amphotropic murine leukemia virus (A-MLV), and the firefly luciferase-expressing vector at a DNA ratio of 1:1:3 μg. For the production of viruses pseudotyped with the A-MLV glycoprotein, a rev-expressing plasmid was added. The single-round, replication-defective viruses in the supernatants were harvested 24-30 hours after transfection, filtered (0.45 μm), aliquoted, and frozen at −80° C. until further use. The reverse transcriptase (RT) activities of all viruses were measured as described previously (Rho et al., 1981).
(§4) Cf2Th/CD4-CCR5 or Cf2Th/CD4-CXCR4 target cells were seeded at a density of 6×10^3 cells/well in 96-well luminometer-compatible tissue culture plates (Perkin Elmer) 24 h before infection. On the day of infection, (1 to 100 μM) was added to recombinant viruses (10,000 reverse transcriptase units) in a final volume of 50 μL and incubated at 37° C. for 30 minutes. The medium was removed from the target cells, which were then incubated with the virus-drug mixture for 2-4 hours at 37° C. At the end of this time point, complete medium was added to a final volume of 150 μL and incubated for 48 hours at 37° C. The medium was removed from each well, and the cells were lysed with 30 μL of passive lysis buffer (Promega) by three freeze-thaw cycles.

[2] = tested on: recombinant HIV-1YU2; assay: Activation of viral infectivity in CD4-negative Cf2Th-CCR5 cells; assay type: cell-based; conditions: for enhancement of viral infectivity in CD4 deficient cells: YU2, CD4-negative, CCR5-expressing cells
[3] = target: T1, gp120 from the YU2 strain (Human immunodeficiency virus type 1 group M subtype B, UniProt P35961); assay: biochemical; assay type: binding, HIV-1
Description: as §1
Analogue binding to full-length gp120 from the YU2 strain was next characterized by isothermal titration calorimetry to assess the enthalpic and entropic contributions to binding affinity (FIG. 7 and FIG. 3c). […] Schön, A. et al. Biochemistry 45, 10973-80 (2006). […] Schön, A. et al. Chem Biol Drug Des: 77, 161-165 (2011).
Isothermal titration calorimetric experiments were performed using a high-precision VP-ITC titration calorimetric system from MicroCal LLC. (Northampton, Mass.). The calorimetric cell (˜1.4 mL), containing gp120 at a concentration of about 2 μM dissolved in PBS, pH 7.4 (Roche Diagnostics GmbH), with 2% DMSO, was titrated with the different compounds dissolved in the same buffer at concentrations of 80-130 μM. The compound solution was added in aliquots of 10 μL at pre-set intervals. All solutions were degassed to avoid any formation of bubbles in the calorimeter during stirring. All experiments were performed at 25° C. The heat evolved upon injection of compound was obtained from the integral of the calorimetric signal. The heat associated with the binding reaction was obtained by subtracting the heat of dilution from the heat of reaction. The individual binding heats were plotted against the molar ratio, and the values for the enthalpy change (ΔH) and association constant, Ka (Kd=1/Ka), were obtained by nonlinear regression of the data.

[4] = tested on: HIV-1YU2 virus; assay: Single-round infection of Cf2Th-CD4/CCR5 cells by luciferase-expressing HIV-1YU2 virus; assay type: cell-based; conditions: for inhibition of entry of YU2 and ADA viruses: CD4- and CCR5-expressing cells
Description: as §1, §3, §4

[5] = tested on: clade B Env-pseudoviruses; assay: Neutralization of Env-pseudoviruses in TZM-bl cells, clade B; assay type: cell-based, HIV-1; conditions: for neutralization breadth: clade B
Description: (§5) HIV-1 Env-pseudoviruses were prepared by transfecting 293T cells with 10 μg of rev/env expression plasmid and 30 μg of an env-deficient HIV-1 backbone vector (pSG3Δenv), using Fugene 6 transfection reagents (Invitrogen). Pseudovirus-containing culture supernatants were harvested two days after transfection, filtered (0.45 μm), and stored at −80° C. or in the vapor phase of liquid nitrogen. Neutralization was measured using HIV-1 Env-pseudoviruses to infect TZM-b1 cells as described previously (Li et al., 2005; Li et al., 2006; Seaman et al., 2010; Wu et al., 2009) with minor modifications. Briefly, the test reagent (DMJ-I-228, NBD556, or CD4-Ig) were diluted in complete media containing 10% DMSO. Then 40 μL of virus was added to 10 μL of serial diluted test reagent in duplicate wells of a 96-well flat bottom culture plate, and the virus-reagent mix was incubated for 30 min at 37° C. To keep assay conditions constant, sham media containing 10% DMSO was used in place of test reagent in specified control wells. The virus input was set at a multiplicity of infection of approximately 0.01-0.1, which generally results in 100,000 to 400,000 relative light units (RLU) in a luciferase assay (Promega, Madison, Wis.). The test reagent concentrations were defined at the point of incubation with virus supernatant. Neutralization curves were fit by nonlinear regression using a 5-parameter hill slope equation as previously described (Seaman et al., 2010).
(§6) To assess further the HIV-1 neutralization breadth and potency, we assayed 1, (+)-3, (+)-4 against 42 diverse strains of clades B and C Env-pseudoviruses (data not shown).

[6] = tested on: clade C Env-pseudoviruses; assay: Neutralization of Env-pseudoviruses in TZM-bl cells, clade C; assay type: cell-based, HIV-1; conditions: for neutralization breadth: clade C
Description: as §5, §6

[7] = tested on: YU2 S375W virus; assay: Viral inhibition with the cavity filling YU2 mutant S375W; assay type: cell-based, HIV-1
Description: Then, the capacity of DMJ-I-228 (10) to bind within the Phe43 cavity was assessed by measuring viral inhibition in the context of the cavity filling YU2 mutant S375W.

[8] = target: T1, gp120 from the YU2 strain; design: species or system HIV-1; conditions: from temperature dependence of the binding enthalpy
[9] = tested on: mono-tropic (HXBc2) and dual tropic (89.6 and KB9) viruses; assay: Inhibition of entry on cells co-expressing CD4 and CXCR4; assay type: cell-based, HIV-1; conditions: Human immunodeficiency virus 1, read-out: IC50 of entry inhibition
Description: as §2
Compounds were dissolved in dimethyl sulfoxide (DMSO), and stored at 10 mM concentrations at −20° C. The compounds were diluted in Dulbecco Modified Eagle Medium (DMEM, Invitrogen) to create 1 mM solutions before use. Soluble CD4 (sCD4) was purchased from ImmunoDiagnostics (Woburn, Mass.). Human 293T embryonic kidney and canine Cf2Th thymocytes (ATCC) were grown at 37° C. and 5% CO2 in DMEM (Invitrogen) containing 10% fetal bovine serum (Sigma) and 100 μg/mL of penicillin-streptomycin (Meditech, Inc.). Cf2Th cells stably expressing human CD4 and either CCR5 or CXCR4 (Babcock et al., 2001, Mirzabekov et al., 1999) were grown in medium supplemented with 0.4 mg/mL of G418 (Invitrogen) and 0.20 mg/mL of hygromycin B (Roche Diagnostics). […] The reverse transcriptase (RT) activities of all viruses were measured as described previously (Rho et al., 1981). […]

[10] = target: gp120 (Human immunodeficiency virus type 1 group M subtype B, UniProt P35961); conditions: previously reported, cited from earlier work
[11] = Human immunodeficiency virus 1, TZM-bl, read-out: IC50 GMT

CNC(=O)C(NC(=O)C(=O)Nc1ccc(Cl)c(F)c1)c1ccccc1 (centres unmarked)
IC50 ([1]; Murine leukemia virus, read-out: IC50 of A-MLV on CD4^+ cells): 91.7 µM | Enhancement of viral infection of CD4− cells ([2]; Example 24 table): 0.00 | ΔG ([3]; Example 24 table): -7.6 kcal/mol | ΔH ([3]; Example 24 table): -9.2 kcal/mol | −TΔS ([3]; Example 24 table): +1.6 kcal/mol | Kd ([3]; Example 24 table, read-out: Kd): 2.5 µM | IC50 ([4]; Human immunodeficiency virus 1, Cf2Th-CD4/CCR5, read-out: IC50 of HIV-1 on CD4^+ cells): 70 µM

N=C(N)NC[C@H]1Cc2ccccc2[C@@H]1NC(=O)C(=O)Nc1ccc(Cl)c(F)c1 [(+)-4, (+)-N^1-(4-Chloro-3-fluorophenyl)-N^2-(trans-2-(guanidinomethyl)indan-1-yl)oxalamide formate salt]
IC50 [5, 11]: 1.7 µM | neutralization breadth [5]: 100% | improvement over (+)-3 based on IC50 titers ([5]; clade B viruses): 60% | improvement over (+)-3 based on IC80 titers ([5]; clade B viruses): 1.5 fold | Kd ([3]; ITC, full-length gp120, read-out: Kd): 0.11 µM | IC50 [6, 11]: 14 µM | neutralization breadth [6]: 59% | IC50 ([4]; Human immunodeficiency virus 1, CCR5, read-out: IC50 of viral entry, YU2): 3.1 ± 0.6 µM

N[C@@H]1Cc2ccccc2[C@H]1NC(=O)C(=O)Nc1ccc(Cl)c(F)c1 [AWS-I-45, N^1-((1R,2R)-2-amino-2,3-dihydro-1H-inden-1-yl)-N^2-(4-chloro-3-fluorophenyl)oxalamide]
specificity: inhibition of A-MLV entry [1]: non-specificity | binding affinity compared to TS-II-224 (2) ([3]; ITC): three-fold loss in affinity

N[C@H]1Cc2ccccc2[C@@H]1NC(=O)C(=O)Nc1ccc(Cl)c(F)c1 [AWS-I-50]
specificity: inhibition of A-MLV entry [1]: non-specificity | binding affinity compared to TS-II-224 (2) ([3]; ITC): three-fold loss in affinity | entropy contribution −TΔS ([3]; ITC, 25° C.): -7.6 kcal/mol

N=C(N)N[C@@H]1Cc2ccccc2[C@H]1NC(=O)C(=O)Nc1ccc(Cl)c(F)c1 [AWS-I-169]
specificity: inhibition of A-MLV entry [1]: did not inhibit A-MLV entry | neutralization breadth [5]: 100% | enhancement of viral infectivity in CD4 deficient cells [2]: did not enhance viral infectivity; also recorded: did not enhance entry | sensitivity of YU2 S375W virus to compound [7]: completely resistant | binding affinity compared to TS-II-224 (2) ([3]; ITC): comparable affinity | enthalpy change ΔH ([3]; ITC, 25° C.): -19.4 kcal/mol | entropy contribution −TΔS ([3]; ITC, 25° C.): -10.4 kcal/mol | neutralization breadth [6]: 100% | change in heat capacity [8]: −817±15 cal/(K×mol) | inhibition of entry of YU2 and ADA viruses [4]: inhibited the entry | IC50 [9]: 6 to 30 µM

N=C(N)N[C@H]1Cc2ccccc2[C@@H]1NC(=O)C(=O)Nc1ccc(Cl)c(F)c1 [DMJ-I-228]
specificity: inhibition of A-MLV entry [1]: did not inhibit A-MLV entry | neutralization breadth [5]: 100% | enhancement of viral infectivity in CD4 deficient cells [2]: did not enhance viral infectivity; also recorded: did not enhance entry | sensitivity of YU2 S375W virus to compound [7]: completely resistant | binding affinity compared to TS-II-224 (2) ([3]; ITC): comparable affinity | enthalpy change ΔH ([3]; ITC, 25° C.): -14.9 kcal/mol | entropy change ΔS ([3]; ITC, 25° C.): −20 cal/(K×mol) | entropy contribution −TΔS ([3]; ITC, 25° C.): -5.9 kcal/mol | Kd ([3]; ITC, 25° C., read-out: Kd (binding affinity)): 0.25 µM | neutralization breadth [6]: 100% | inhibition of entry of YU2 and ADA viruses [4]: inhibited the entry | IC50 [9]: 6 to 30 µM

CC1(C)CC(NC(=O)C(=O)Nc2ccc(Cl)cc2)CC(C)(C)N1 [NBD-556]
enthalpy change ([10]; 25° C.): -24.5 kcal/mol | unfavorable entropy change −TΔS, contribution to Gibbs energy [10]: 17.1 kcal/mol

O=C(Nc1ccc(Cl)c(F)c1)C(=O)N[C@H]1c2ccccc2C[C@H]1O [TK-II-52]
specificity: inhibition of A-MLV entry [1]: non-specificity

O=C(Nc1ccc(Cl)c(F)c1)C(=O)N[C@@H]1c2ccccc2C[C@@H]1O [TK-II-103, N^1-(4-chloro-3-fluorophenyl)-N^2-((1R,2S)-2-hydroxy-2,3-dihydro-1H-inden-1-yl)oxalamide]
specificity: inhibition of A-MLV entry [1]: non-specificity
